From patent publication US12171766B2, “Methods of treating patients suffering from brain injury and methods of increasing the value of the extended Glasgow Outcome Scale of patients suffering from brain injury” (VERINOS OPERATIONS GMBH, priority 2021, dated 2024)

Test system: adult intensive care patients with acute moderate and severe TBI
Assay: NOSTRA phase III trial: Extended Glasgow Outcome Scale (eGOS) at 3 and 6 months, Ronopterin 17 mg/kg infused over 48 hours vs placebo, incl. post hoc subgroup analyses
Assay type: in vivo, human
Procedure: A phase III trial of Ronopterin infusion to adult TBI patients (18-60 years) with acute moderate and severe TBI was performed. Based on the results of the earlier phase II study, the NOSTRA (NO Synthase in TRAumatic Brain Injury) phase III trial was designed to detect clinically relevant differences in clinical outcome (Extended Glasgow Outcome Score at 6 months after injury) as primary endpoint.
NOSTRA III was a multicentre, prospective, two parallel groups, blinded, placebo-controlled, randomised phase III trial of Ronopterin infusion for 48 hours in adult intensive care patients with acute moderate and severe TBI. […] The detailed study protocol is described by Tegtmeier et al. Efficacy of Ronopterin (VAS203) in Patients with Moderate and Severe Traumatic Brain Injury (NOSTRA phase III trial): study protocol of a confirmatory, placebo-controlled, randomised, double blind, multi-centre study. Trials. 2020. A total of 224 evaluable patients with moderate and severe TBI were enrolled in 32 centres in Austria, France, Germany, Spain, and United Kingdom. The trial started on 24 Aug. 2016 with last-patient last-visit on 17 Jun. 2020.
Patients between 18 and 60 years of age with Glasgow Coma Score≥3 requiring intracranial pressure (ICP) monitoring were enrolled. Other inclusion criteria were TBI within the last 18 hours but at least 6 hours after the injury, which were expected to survive more than 24 hours after admission.
Ronopterin and placebo (0.9% saline) were infused continuously via central venous catheter at a constant rate. A total dose of 17 mg/kg body weight of Ronopterin was infused for 48 hours (daily dose 8.5 mg/kg body weight).
The primary outcome was the difference between eGOS in Ronopterin and placebo treated patients at 6 months after trauma. The eGOS was determined by a face to face meeting by trained assessors.
The null-hypothesis of no shift across the 8 ordered categories of eGOS for the two treatment groups was tested after six months based on a proportional odds model stratified by age (18-39 years and 40-60 years). The treatment effect was estimated using ordinal Logistic regression model as the (proportional) odds ratio of Ronopterin versus Placebo. Treatment and age (18-39 years and 40-60 years) were included in the model. The proportional odds assumption was tested using a Chi-Square Score Test.
As secondary efficacy endpoint the eGOS at 3 months was analysed using the same statistics.
The main objective of the post hoc analyses was to estimate the effect size of VAS203 compared with placebo for the primary endpoint eGOS-I in the subgroups time to infusion ≤12 hours and >12 hours. Supportive analyses were conducted by age group (<40 years, ≥40 years) because age group was used as a stratification factor in the study. Comparability between treatment groups regarding demographics as well as severity and location of disease was investigated using similar methods as in the main CSR.
The proportions of patients per eGOS-I level at 3 months and at 6 months were calculated. For the change in eGOS-I over time, the proportion of patients with changes from 3 to 6 months were calculated by eGOS-I level, and in addition categorised as decreased (i.e. any decrease in eGOS-I level from 3 to 6 months), unchanged (i.e. no change in eGOS-I level from 3 to 6 months), and increased (i.e. any increase in eGOS-I level from 3 to 6 months).
Ordinal logistic regression was used for the analysis of eGOS-I at 3 months and at 6 months, including treatment group and age group (<40 years, ≥40 years) as factors in the model. Estimated odds ratios for the comparison of the VAS203 and placebo groups of >1 mean that eGOS-I was higher in the VAS203 group than in the placebo group across the 8 levels, whereas odds ratios of <1 mean that eGOS-I was lower in the VAS203 group than in the placebo group. Odds ratios together with their 95% CIs were used to estimate and assess the size of the treatment effect of VAS203 compared to placebo. […]

[1] = female patients, ≤12 hours (FIGS. 14A-D)

CC(O)C(O)C1CNc2nc(N)nc(N)c2N1 [Ronopterin, 4-Amino-(6R,S)-5,6,7,8-tetrahydro-L-biopterin] was tested, and the “number of patients with increase in eGOS by at least 2 levels from 3 to 6 months” value (from here on “number of patients with increase in eGOS”) (age 40-60 years, all times to infusion (FIG. 8C)) was 10, the “more patients with higher increase in eGOS over time vs placebo: significance” value (age 40-60 years, all times to infusion (FIG. 8D)) was “not (statistically) significant” and the “increase in eGOS levels from 3 to 6 months” value (“increase in eGOS levels” for short) (age 40-60 years, ≤12 hours (FIG. 9A)) was “up to 4 levels”. For the same molecule, the “number of patients with increase in eGOS” value (age 40-60 years, ≤12 hours (FIG. 9C)) was 5, the “Odds ratio for increases in eGOS levels from 3 to 6 months” value (age group 18-39 (<40), early infusion (≤12 hours), vs placebo) was 4.398 and the “patients with an increase in their eGOS levels (eGOS responders) vs placebo” value (age ≥40 years, ≤12 hours (FIGS. 9A-D)) was “trend to more patients with an increase in their eGOS levels”. For the same molecule, the “increase in eGOS levels” value (all ages, >12 hours (FIG. 5E)) was “up to 4 levels”, the “number of patients with increase in eGOS” value (all ages, early infusion ≤12 hours (FIG. 5C)) was 9 and the “number of patients with increase in eGOS” value (all ages, late infusion >12 hours (FIG. 5G)) was 15. The “increase in eGOS levels” value (all ages, ≤12 hours (FIG. 5A)) was “up to 4 levels”, the “increase in proportion of patients with an eGOS increase by at least 1 level compared to Placebo: significance” value (all ages, ≤12 hours (FIGS. 5A-D)) was “significant” and the “less patients with a decrease in eGOS over time vs placebo: significance” value (all patients, all times to infusion) was “not (statistically) significant”. For the same molecule, the “increase in eGOS levels” value (all patients, all times to infusion (FIG. 4A)) was “up to 4 levels”, the “number of patients with increase in eGOS” value (all patients, all times to infusion (FIG. 4C)) was 24 and the “more patients with higher increase in eGOS over time vs placebo: significance” value (all patients, all times to infusion (FIG. 4D)) was “not (statistically) significant”. For the same molecule, the “overall eGOS-I rating at 6 months, Ronopterin vs placebo (primary efficacy endpoint)” value (all patients, ordinal logistic regression) was “No difference”, the “increase in eGOS levels” value (female patients, >12 hours (FIG. 14E)) was “up to 2 levels” and the “number of patients with increase in eGOS” value (female patients, >12 hours (FIG. 14G)) was 2. The “increase in eGOS levels” value (female patients, all times to infusion (FIG. 13A)) was “up to 2 levels”, the “number of patients with increase in eGOS” value (female patients, all times to infusion (FIG. 13C)) was 2 and the “less female patients with higher increase in eGOS over time vs placebo: significance” value (female patients, all times to infusion (FIG. 13D)) was “not (statistically) significant”. For the same molecule, the “increase in proportion of patients with Good Recovery (eGOS 7 and 8) from 3 to 6 months, compared to Placebo” value (from here on “increase … to 6 months, compared to Placebo”) (female patients, early infusion ≤12 hours (FIG. 18)) was “exceeding the proportion in Placebo-treated patients”, the “increase … to 6 months, compared to Placebo” value (female patients, late infusion >12 hours (FIG. 18)) was “exceeding the proportion in Placebo-treated patients” and the “increase in eGOS levels” value (female patients, ≤12 hours (FIG. 14A)) was “up to 2 levels”. The “number of patients with increase in eGOS” value (female patients, ≤12 hours (FIG. 14C)) was 0, the “Good Recovery at 3 months vs placebo” value [1] was “higher Good Recovery at 3 months” and the “eGOS responders vs placebo” value [1] was “less female eGOS responders”. The “increase in eGOS levels” value (male patients, >12 hours (FIG. 12E)) was “up to 4 levels”, the “number of patients with increase in eGOS” value (male patients, >12 hours (FIG. 12G)) was 13 and the “increase in eGOS levels” value (male patients, all times to infusion (FIG. 11A)) was “up to 4 levels”. For the same molecule, the “number of patients with increase in eGOS” value (male patients, all times to infusion (FIG. 11C)) was 22, the “more patients with higher increase in eGOS over time vs placebo: significance” value (male patients, all times to infusion (FIG. 11D)) was “not (statistically) significant” and the “patients with a decrease in eGOS over time vs placebo” value (male patients, all times to infusion, p=0.04) was “significantly less”. For the same molecule, the “increase … to 6 months, compared to Placebo” value (male patients, early infusion ≤12 hours (FIG. 17)) was “exceeding the proportion in Placebo-treated patients”, the “increase … to 6 months, compared to Placebo” value (male patients, late infusion >12 hours (FIG. 17)) was “less pronounced compared to Placebo-treated patients” and the “increase in eGOS levels” value (male patients, ≤12 hours (FIG. 12A)) was “up to 4 levels”. The “number of patients with increase in eGOS” value (male patients, ≤12 hours (FIG. 12C)) was 9, the “increase in proportion of patients with an eGOS increase by at least 1 level compared to Placebo: significance” value (male patients, ≤12 hours (FIGS. 12A-D)) was “significant” and the “median eGOS at 6 months” value (time to infusion >12 hours) was 5. The “proportion of patients with Good Recovery (eGOS 7 and 8) at 6 months” value (time to infusion >12 hours) was 25%, the “increase of proportion of patients with a Good Recovery at 6 months compared to the Placebo group” value (time to infusion ≤12 hours) was 61% and the “median eGOS at 6 months” value (time to infusion ≤12 hours) was 6. For the same molecule, the “proportion of patients with Good Recovery (eGOS 7 and 8) at 6 months” value (time to infusion ≤12 hours) was 37% and the “NNT for Good Recovery (eGOS 7 and 8) at 6 months” value (time to infusion ≤12 hours, vs placebo) was 8.
